According to ChEMBL document CHEMBL1153666, “K-13 and of4949: Evaluation of key partial structures and pharmacophore delineation” (Bioorg Med Chem Lett, 1993):
The source made the active and inactive calls. The calls are words filed in the database; no cut-off is given here.

What was measured:
[1] = target: T1, Angiotensin-converting enzyme (Oryctolagus cuniculus, UniProt P12822); test: Inhibitory concentration against Angiotensin I converting enzyme obtained from rabbit lung acetone powder extract; conditions: read-out: I50 (converted)
T1 sequence (P12822 whole entry): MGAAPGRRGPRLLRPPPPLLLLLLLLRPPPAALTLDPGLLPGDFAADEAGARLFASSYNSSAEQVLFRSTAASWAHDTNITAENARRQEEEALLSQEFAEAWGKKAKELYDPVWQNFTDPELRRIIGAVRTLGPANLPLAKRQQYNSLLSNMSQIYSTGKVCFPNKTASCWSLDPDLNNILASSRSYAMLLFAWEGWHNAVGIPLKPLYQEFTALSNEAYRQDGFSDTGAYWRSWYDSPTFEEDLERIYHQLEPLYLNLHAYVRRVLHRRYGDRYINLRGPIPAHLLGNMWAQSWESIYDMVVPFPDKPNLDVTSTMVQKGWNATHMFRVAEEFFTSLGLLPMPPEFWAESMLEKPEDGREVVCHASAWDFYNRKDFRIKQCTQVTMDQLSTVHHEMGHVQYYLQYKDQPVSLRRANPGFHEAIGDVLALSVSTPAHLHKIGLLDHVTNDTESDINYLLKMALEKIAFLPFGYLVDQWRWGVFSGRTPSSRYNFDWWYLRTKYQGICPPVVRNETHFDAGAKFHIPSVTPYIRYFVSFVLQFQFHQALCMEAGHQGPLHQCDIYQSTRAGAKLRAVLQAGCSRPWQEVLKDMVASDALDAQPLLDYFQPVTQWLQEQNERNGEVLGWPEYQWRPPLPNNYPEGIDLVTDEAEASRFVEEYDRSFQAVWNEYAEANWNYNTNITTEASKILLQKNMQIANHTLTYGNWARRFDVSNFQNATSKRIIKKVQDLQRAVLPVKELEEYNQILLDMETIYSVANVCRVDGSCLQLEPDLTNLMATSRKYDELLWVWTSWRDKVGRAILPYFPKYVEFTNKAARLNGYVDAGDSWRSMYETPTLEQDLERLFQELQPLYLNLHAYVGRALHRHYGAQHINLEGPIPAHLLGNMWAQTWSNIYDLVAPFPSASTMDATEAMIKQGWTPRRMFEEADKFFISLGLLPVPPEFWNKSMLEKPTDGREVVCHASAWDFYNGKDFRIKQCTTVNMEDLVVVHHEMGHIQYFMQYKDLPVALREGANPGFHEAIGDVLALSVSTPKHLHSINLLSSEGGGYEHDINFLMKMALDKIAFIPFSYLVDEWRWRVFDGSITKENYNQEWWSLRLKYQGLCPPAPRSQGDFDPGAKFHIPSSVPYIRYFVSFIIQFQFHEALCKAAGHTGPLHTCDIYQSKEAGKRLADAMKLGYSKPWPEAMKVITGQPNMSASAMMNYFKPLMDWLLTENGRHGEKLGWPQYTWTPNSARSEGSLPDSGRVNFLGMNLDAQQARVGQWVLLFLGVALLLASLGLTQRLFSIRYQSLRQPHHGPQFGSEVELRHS

[2] = target: T2, Angiotensin-converting enzyme (Oryctolagus cuniculus) (UniProt P12822); test: Inhibition of Angiotensin I converting enzyme from rabbit lung acetone powder extract; Inactive
T2 sequence (whole entry): T1 sequence (P12822 whole entry)

Aminopeptidase B [3] = target: T3, Aminopeptidase B (Rattus norvegicus, UniProt O09175); test: Tested for concentration that causes 50% inhibition of rat liver aminopeptidase B, was determined; Inactive
T3 sequence (O09175 whole entry): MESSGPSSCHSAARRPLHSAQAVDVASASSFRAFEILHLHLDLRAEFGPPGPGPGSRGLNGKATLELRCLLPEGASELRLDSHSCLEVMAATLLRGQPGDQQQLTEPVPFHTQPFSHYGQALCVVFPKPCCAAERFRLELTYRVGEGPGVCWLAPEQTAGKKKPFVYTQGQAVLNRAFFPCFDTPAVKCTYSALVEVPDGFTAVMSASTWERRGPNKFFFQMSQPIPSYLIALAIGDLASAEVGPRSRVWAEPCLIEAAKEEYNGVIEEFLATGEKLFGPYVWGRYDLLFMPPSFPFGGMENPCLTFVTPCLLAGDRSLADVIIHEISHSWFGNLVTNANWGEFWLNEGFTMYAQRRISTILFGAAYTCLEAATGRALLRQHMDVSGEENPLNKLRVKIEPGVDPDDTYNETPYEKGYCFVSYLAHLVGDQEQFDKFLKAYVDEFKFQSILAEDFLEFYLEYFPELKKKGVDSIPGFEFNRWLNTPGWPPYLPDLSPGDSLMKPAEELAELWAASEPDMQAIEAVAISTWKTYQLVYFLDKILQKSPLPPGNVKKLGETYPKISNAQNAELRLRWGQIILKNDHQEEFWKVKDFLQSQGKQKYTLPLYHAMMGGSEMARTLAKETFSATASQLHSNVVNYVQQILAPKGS

P388 [4] = test: Tested for concentration that causes 50% inhibition of P388 leukemic cell growth, was determined in vitro; format: functional, cell-based; conditions: Mus musculus
[5] = target: T2, Angiotensin-converting enzyme (Oryctolagus cuniculus); test: Tested for percent inhibitory concentration that cause inhibition of Angiotensin I converting enzyme obtained from rabbit lung acetone powder extract at 200 ug/mL
[6] = target: T4, Aminopeptidase B (Rattus norvegicus) (UniProt O09175); test: Tested for percent inhibitory concentration that cause inhibition of rat liver aminopeptidase B at 220 ug/mL
T4 sequence (whole entry): T3 sequence (O09175 whole entry)

Aminopeptidase B [7] = target: T3, Aminopeptidase B; test: Tested for concentration that causes 50% inhibition of rat liver aminopeptidase B, was determined; conditions: read-out: I50 (converted)
[8] = target: T2, Angiotensin-converting enzyme (Oryctolagus cuniculus); test: Tested for percent inhibitory concentration that cause inhibition of Angiotensin I converting enzyme obtained from rabbit lung acetone powder extract at 100 ug/mL
[9] = target: T2, Angiotensin-converting enzyme (Oryctolagus cuniculus); test: Tested for inhibitory concentration that causes inhibition of Angiotensin I converting enzyme obtained from rabbit lung acetone powder extract; conditions: concentration not given here
[10] = target: T1, Angiotensin-converting enzyme; test: Tested for inhibitory concentration that causes inhibition of Angiotensin I converting enzyme obtained from rabbit lung acetone powder extract); conditions: read-out: I50 (converted)
[11] = target: T1, Angiotensin-converting enzyme; test: Tested for inhibitory constant against Angiotensin I converting enzyme
[12] = target: T4, Aminopeptidase B (Rattus norvegicus); test: Percent inhibition of rat liver aminopeptidase B by 230 ug/mL was determined
P388 [13] = test: Tested in vitro for concentration that causes 50% inhibition of P388 leukemic cell growth; format: functional, cell-based; conditions: Mus musculus

Compound | IC50 [1] [µM] | inhibition [2] | other results
COc1ccc2cc1Oc1ccc(cc1)C[C@H](NC(C)=O)C(=O)N[C@@H](Cc1ccc(O)cc1)C(=O)N[C@H](C(=O)O)C2 | 5.34 | – | –
O=C1CCc2cccc(c2)Oc2ccc(cc2)CCNC(=O)CN1 | – | inactive | –
N[C@@H](Cc1ccc(Oc2cc(C[C@H](N)C(=O)O)ccc2O)cc1)C(=O)O | – | – | I50 (Aminopeptidase B [3]): Not Active; IC50 (P388 [4]): > 10 µg/mL; inhibition [5]: 13%
O=C1CCc2ccc(O)c(c2)Oc2ccc(cc2)CCNC(=O)CN1 | – | inactive | –
COC(=O)CCc1ccc(O)c(Oc2ccc(CCNC(=O)[C@H](CC(N)=O)NC(=O)OC(C)(C)C)cc2)c1 | – | inactive | –
CC(C)(C)OC(=O)N[C@@H](Cc1ccc(Oc2cc(C[C@H](NC(=O)OCc3ccccc3)C(=O)O)ccc2OCc2ccccc2)cc1)C(=O)N[C@H](Cc1ccc(O)cc1)C(=O)O | – | inactive | –
COC(=O)[C@H]1Cc2ccc(O)c(c2)Oc2ccc(cc2)C[C@H](NC(C)=O)C(=O)N[C@@H](Cc2ccc(O)cc2)C(=O)N1 | 0.89 | – | –
COc1ccc2cc1Oc1ccc(cc1)C[C@@H](C(=O)O)NC(=O)[C@H](CC(N)=O)NC(=O)[C@@H](NC(=O)OCc1ccccc1)C2 | 182 | – | –
CC(=O)N[C@@H](Cc1ccc(Oc2cc(C[C@H](NC(=O)[C@H](Cc3ccc(O)cc3)NC(=O)OC(C)(C)C)C(=O)O)ccc2OCc2ccccc2)cc1)C(=O)O | – | inactive | –
COC(=O)[C@@H]1Cc2ccc(cc2)Oc2cc(ccc2OCc2ccccc2)C[C@H](NC(=O)OCc2ccccc2)C(=O)N[C@@H](CC(N)=O)C(=O)N1 | – | – | inhibition [6]: 14%
NC(=O)C[C@@H]1NC(=O)[C@@H](N)Cc2ccc(O)c(c2)Oc2ccc(cc2)C[C@@H](C(=O)O)NC1=O | – | – | IC50 (Aminopeptidase B [7]): 43.8 µM; inhibition [8]: 11%; IC50 (P388 [4]): > 10 µg/mL
COC(=O)CCc1cccc(Oc2ccc(CCNC(=O)CNC(=O)OC(C)(C)C)cc2)c1 | – | inactive | –
O=C1CCc2ccc(cc2)Oc2cc(ccc2O)CCNC(=O)[C@H](Cc2ccc(O)cc2)N1 | 11.2 | – | –
COC(=O)[C@@H]1Cc2ccc(cc2)Oc2cc(ccc2O)C[C@H](N)C(=O)N[C@@H](CC(N)=O)C(=O)N1 | 42.5 | – | –
COC(=O)CCc1ccc(OC)c(Oc2ccc(CCNC(=O)[C@H](CC(N)=O)NC(=O)OC(C)(C)C)cc2)c1 | – | inactive | –
O=C1CCc2ccc(cc2)Oc2cccc(c2)CCNC(=O)[C@H](Cc2ccc(O)cc2)N1 | – | – | inhibition [9]: 10%
COc1ccc2cc1Oc1ccc(cc1)C[C@@H](C(=O)O)NC(=O)[C@H](CC(N)=O)NC(=O)[C@@H](N)C2 | 149 | – | IC50 (P388 [4]): > 10 µg/mL
CC(=O)N[C@@H]1Cc2ccc(cc2)Oc2cc(ccc2O)C[C@H](C(=O)O)NC(=O)[C@H](Cc2ccc(O)cc2)NC1=O | – | – | IC50 [10]: 0.183 µM; Ki [11]: 0.35 µM; inhibition [12]: 13%; IC50 (P388 [13]): > 10 µg/mL
NC(=O)C[C@@H]1NC(=O)CCc2cccc(c2)Oc2ccc(cc2)CCNC1=O | – | inactive | –
COc1ccc2cc1Oc1ccc(cc1)CCNC(=O)[C@H](CC(N)=O)NC(=O)CC2 | 535 | – | –
COC(=O)[C@H]1Cc2ccc(O)c(c2)Oc2ccc(cc2)C[C@H](N)C(=O)N[C@@H](Cc2ccc(O)cc2)C(=O)N1 | 1.15 | – | –
COC(=O)[C@H](Cc1ccc(O)c(Oc2ccc(C[C@H](NC(=O)[C@H](CC(N)=O)NC(=O)OC(C)(C)C)C(=O)OC)cc2)c1)NC(=O)OCc1ccccc1 | – | inactive | –
COC(=O)[C@H](Cc1ccc(OCc2ccccc2)c(Oc2ccc(C[C@H](NC(=O)[C@H](CC(N)=O)NC(=O)OC(C)(C)C)C(=O)OC)cc2)c1)NC(=O)OCc1ccccc1 | – | inactive | –
COC(=O)[C@@H]1Cc2ccc(cc2)Oc2cc(ccc2O)C[C@H](NC(=O)OCc2ccccc2)C(=O)N[C@@H](CC(N)=O)C(=O)N1 | 198 | – | –
COC(=O)[C@@H]1Cc2ccc(cc2)Oc2cc(ccc2OC)C[C@H](NC(=O)OCc2ccccc2)C(=O)N[C@@H](CC(N)=O)C(=O)N1 | 210 | – | –
COC(=O)CCc1cccc(Oc2ccc(CCNC(=O)[C@H](CC(N)=O)NC(=O)OC(C)(C)C)cc2)c1 | – | inactive | –
NC(=O)C[C@@H]1NC(=O)CCc2ccc(O)c(c2)Oc2ccc(cc2)CCNC1=O | 528 | – | –
